“And” between values parts separate entries of the source, which are not always exact repeats. Identical values can stand only once.
Tests used:
[1] = Cytotoxicity against African green monkey Vero cells incubated for 24 to 48 hrs by SRB assay; assay type: cell-based; settings: chlorocebus sabaeus
[2] = test system: Giardia intestinalis; experiment: Antiprotozoal activity against Giardia intestinalis IMSS:0696:1 (genotype A) trophozoites incubated for 48 hrs; assay type: functional; settings: Giardia duodenalis
[3] = test system: Trypanosoma cruzi; experiment: Antiprotozoal activity against Trypanosoma cruzi MHOM/MX/1994/Ninoa incubated for 72 hrs by Neubauer chamber based cell counting method; assay type: functional
[4] = test system: Leishmania amazonensis; experiment: Antiprotozoal activity against Leishmania amazonensis IFLA/BR/67/PH-8 incubated for 72 hrs by Neubauer chamber based cell counting method; assay type: functional; settings: IFLA/BR/67/PH-8, 72 h
[5] = test system: Leishmania mexicana; experiment: Antiprotozoal activity against Leishmania mexicana MHOM/MX/ISETGS incubated for 72 hrs by Neubauer chamber based cell counting method; assay type: functional
[6] = test system: Trichomonas vaginalis; experiment: Antiprotozoal activity against Trichomonas vaginalis GT3 trophozoites incubated for 48 hrs; assay type: functional; settings: GT3, 48 h
[7] = Selectivity index, ratio of CC50 for cytotoxicity against African green monkey Vero cells to IC50 for Trichomonas vaginalis GT3
[8] = test system: Giardia intestinalis; experiment: Potency index, ratio of ED50 for nitazoxanide to ED50 for test compound for antigiardial activity against Giardia intestinalis WB trophozoites infected in CD1 mouse dosed intragastrically 6 days after infection and measured 48 hrs post dose; assay type: functional, Giardia duodenalis
[9] = test system: Giardia intestinalis; experiment: Antigiardial activity against Giardia intestinalis WB trophozoites infected in CD1 mouse dosed intragastrically 6 days after infection and measured 48 hrs post dose; assay type: functional; settings: Giardia duodenalis, po
[10] = Selectivity index, ratio of CC50 for cytotoxicity against African green monkey Vero cells to IC50 for Leishmania mexicana MHOM/MX/ISETGS; assay type: toxicity, cell-based; settings: read-out: Ratio CC50/IC50
[11] = Selectivity index, ratio of CC50 for cytotoxicity against African green monkey Vero cells to IC50 for Giardia intestinalis Giardia intestinalis IMSS:0696:1 (genotype A)
[12] = test system: Trypanosoma cruzi; experiment: Potency index, ratio of IC50 for benznidazole to IC50 for test compound for antiprotozoal activity against Trypanosoma cruzi MHOM/MX/1994/Ninoa incubated for 72 hrs by Neubauer chamber based cell counting method; assay type: functional
[13] = test system: Giardia intestinalis; experiment: Potency index, ratio of ED50 for metronidazole to ED50 for test compound for antigiardial activity against Giardia intestinalis WB trophozoites infected in CD1 mouse dosed intragastrically 6 days after infection and measured 48 hrs post dose; assay type: functional, Giardia duodenalis
[14] = test system: Giardia intestinalis; experiment: Potency index, ratio of IC50 for nitazoxanide to IC50 for test compound for antiprotozoal activity against Giardia intestinalis IMSS:0696:1 (genotype A) trophozoites incubated for 48 hrs; assay type: functional, Giardia duodenalis
[15] = test system: Giardia intestinalis; experiment: Potency index, ratio of IC50 for metronidazole to IC50 for test compound for antiprotozoal activity against Giardia intestinalis IMSS:0696:1 (genotype A) trophozoites incubated for 48 hrs; assay type: functional, Giardia duodenalis
[16] = test system: Leishmania amazonensis; experiment: Potency index, ratio of IC50 for nitazoxanide to IC50 for test compound for antiprotozoal activity against Leishmania amazonensis IFLA/BR/67/PH-8 incubated for 72 hrs by Neubauer chamber based cell counting method; assay type: functional
[17] = test system: Leishmania amazonensis; experiment: Potency index, ratio of IC50 for pentamidine to IC50 for test compound for antiprotozoal activity against Leishmania amazonensis IFLA/BR/67/PH-8 incubated for 72 hrs by Neubauer chamber based cell counting method; assay type: functional
[18] = test system: Trichomonas vaginalis; experiment: Potency index, ratio of IC50 for metronidazole to IC50 for test compound for antiprotozoal activity against Trichomonas vaginalis GT3 trophozoites incubated for 48 hrs; assay type: functional
[19] = test system: Trichomonas vaginalis; experiment: Potency index, ratio of IC50 for nitazoxanide to IC50 for test compound for antiprotozoal activity against Trichomonas vaginalis GT3 trophozoites incubated for 48 hrs; assay type: functional

Row | Structure (SMILES) | CC50 [1] | IC50 [2] | IC50 [3] | IC50 [4] | IC50 [5] | IC50 [6] | Ratio CC50/IC50 [7] | Ratio ED50 [8] | ED50 [9] | selectivity ratio [10] | Ratio CC50/IC50 [11] | Ratio IC50 [12] | Ratio ED50 [13] | Ratio IC50 [14] | Ratio IC50 [15] | Ratio IC50 [16] | Ratio IC50 [17] | Ratio IC50 [18] | Ratio IC50 [19]
1 | CCCCCCCCCCCCCCCCOP(=O)([O-])OCC[N+](C)(C)C [MILTEFOSINE] | 0.12 µM | 20 µM | 25.2 µM | 1.35 µM | 2.03 µM | 20 µM |  |  |  |  |  |  |  |  |  |  |  |  | 
2 | COc1ccc2cc([C@H](C)C(=O)Nc3ncc([N+](=O)[O-])s3)ccc2c1 | 180 µM | 0.221 µM | 12.9 µM | 3.64 µM | 25.5 µM | 0.162 µM | 1112 | 50 - 300 | 0.00766 mg/kg and 0.0215 µmol/kg | 49 | 815 | 2 | 50 - 300 |  |  |  |  |  | 
3 | COc1ccc2c(c1)c(CC(=O)Nc1ncc([N+](=O)[O-])s1)c(C)n2C(=O)c1ccc(Cl)cc1 | 13 µM | 0.145 µM | > 50 µM | 0.88 µM | 6.77 µM | 0.134 µM | 96 | 1015 | 0.00171 mg/kg and 0.00353 µmol/kg | 15 | 89 |  | 321 | 8 | 38 | 8 | 16 |  | 
4 | O=C(Cc1ccccc1Nc1c(Cl)cccc1Cl)Nc1ncc([N+](=O)[O-])s1 |  | 0.147 µM | 15.7 µM | 1.89 µM | 6.12 µM | 0.218 µM |  |  |  |  |  | 2 |  | 8 | 38 |  |  |  | 
5 | CC1CS(=O)(=O)CCN1/N=C/c1ccc([N+](=O)[O-])o1 (stereo unspecified) [NIFURTIMOX] |  |  | 7.45 µM |  | 3.1 µM |  |  |  |  |  |  |  |  |  |  |  |  |  | 
6 | CC(C)(Oc1ccc(Cl)cc1)C(=O)Nc1ncc([N+](=O)[O-])s1 | 22 µM | 0.172 µM | 12.2 µM | 3.43 µM | 16.6 µM | 0.032 µM | 686 | 50 - 300 | 0.00384 mg/kg and 0.0113 µmol/kg | 6 | 127 | 2 | 50 - 300 |  |  |  |  | 10 | 2
7 | O=[N+]([O-])c1cncs1 | 441 µM | 29.6 µM | > 50 µM | > 50 µM | > 50 µM | 52.9 µM |  |  |  |  |  |  |  |  |  |  |  |  | 
8 | O=C(Cn1ccnc1[N+](=O)[O-])NCc1ccccc1 [BENZNIDAZOLE] |  |  |  | > 50 µM | > 50 µM |  |  |  |  |  |  |  |  |  |  |  |  |  | 
9 | N=C(N)c1ccc(OCCCCCOc2ccc(C(=N)N)cc2)cc1 [PENTAMIDINE] |  |  | > 50 µM |  |  |  | 12.3 |  |  | 3.2 | 11 |  |  |  |  |  |  |  | 
10 | CC(=O)Oc1ccccc1C(=O)Nc1ncc([N+](=O)[O-])s1 [NITAZOXANIDE] |  |  |  |  |  |  |  |  | 1.1 mg/kg and 3.58 µmol/kg | 115 |  | 2 |  |  |  |  |  |  | 
11 | CC(C)Cc1ccc(C(C)C(=O)Nc2ncc([N+](=O)[O-])s2)cc1 (racemic) | 201 µM | 0.227 µM | 15 µM | 6.42 µM | 17.1 µM | 0.045 µM | 4475 | 50 - 300 | 0.00399 mg/kg and 0.012 µmol/kg | 31 | 887 | 2 | 50 - 300 |  |  |  |  | 7 | 1.7
12 | Cc1ncc([N+](=O)[O-])n1CCO [METRONIDAZOLE] |  |  | > 50 µM | > 50 µM | > 50 µM |  | 1134 |  |  | < 7 | 72 |  |  |  |  |  |  |  | 
